Here are results for eleven molecules from patent publication US11691898B2, “Water treatment” (ITALMATCH CHEMICALS GB LIMITED, priority 2016, dated 2023).

In one assay the test system is Desulfovibrio vulgaris. Briefly: Log10 reduction in viable count of anaerobic bacteria in a high-TDS aqueous suspension. The class given is cell-based. Particulars: for Log10 Reduction Anaerobes*: pH 8.0, TDS 30,000 mg l^-1, versus control, 5 = complete kill, ppm active as per example; for effectiveness against anaerobes (in words): alone. Here is the method:
(§1) Aqueous systems inoculated with anaerobe and facultative anaerobe culture and having a total dissolved solids (TDS) concentration of 30,000 mg l^−1 were prepared and treated with treatment agents comprising: (a) tri n-butyl n-tetradecyl phosphonium chloride (TTPC) and (b) NaClO2.
(§2) A suspension of Desulfovibrio vulgaris plus Enterobacter aerogenes bacteria containing from 1×10^5 to 1×10^6 cells/mL was prepared in sterile pH 8 phosphate buffer containing sodium chloride to give the desired total dissolved solids (TDS) concentration. Aliquots of this suspension were dosed with the indicated concentrations of the compounds (a) and (b) with the concentrations being measured as ppm active. The mixtures were allowed to stand at room temperature. At the designated contact times, each mixture was sampled to determine the total number of viable cells of both Desulfovibrio vulgaris and Enterobacter aerogenes by serial 10-fold dilution into API RP 38 media vials and anaerobic acid producing media vials, respectively. The vials were incubated at 37° C. for 72 hours. Results were recorded as log10 reduction in the viable count versus the control.
(§3) The efficacy of the treatment agents was evaluated by measuring the Log10 Reduction of the anaerobic bacterium Desulfovibrio vulgaris and the facultative anaerobic bacterium Enterobacter aerogenes after contact times of 1 hour, 4 hours and 24 hours as detailed in Table 1. For TTPC the stated ppm value relates to the amount of TTPC added (active). For NaClO2 the stated ppm relates to the amount of NaClO2 added (active).

Another assay concerns Enterobacter aerogenes. Briefly: Log10 reduction in viable count of facultative anaerobic bacteria in a high-TDS aqueous suspension. Type of assay: cell-based. The settings on record: pH 8.0, TDS 30,000 mg l^-1, versus control, 6 = complete kill, ppm active as per example. The procedure: as §1, §2, §3

Regarding `CCCCCCCCCCCCCC[P+](CCCC)(CCCC)CCCC.[Cl-]` [1(comparative), tri n-butyl n-tetradecyl phosphonium chloride], in the assay on Desulfovibrio vulgaris (contact time 1 hour), the “Log10 Reduction Anaerobes*” value was found to be 2. Besides, in the assay on Enterobacter aerogenes (contact time 1 hour), the “Log10 Reduction Facultative Anaerobes**” value was determined as 0.

Turning to `CCCCCCCCCCCCCC[P+](CCCC)(CCCC)CCCC.[Cl-]` [2(comparative), tri n-butyl n-tetradecyl phosphonium chloride], the “Log10 Reduction Anaerobes*” value with Desulfovibrio vulgaris (contact time 1 hour) is 5. For the same molecule, the “Log10 Reduction Facultative Anaerobes**” value in the assay on Enterobacter aerogenes (contact time 1 hour) is listed as 3.

On to `[Na+].[O-][Cl+][O-]` [4(comparative), NaClO2], for which, in the assay with Desulfovibrio vulgaris (contact time 1 hour), the “Log10 Reduction Anaerobes*” value was found to be 0. In the assay with Enterobacter aerogenes (contact time 1 hour), the “Log10 Reduction Facultative Anaerobes**” value is given as 0.

On to `CCCCCCCCCCCCCC[P+](CCCC)(CCCC)CCCC.[Cl-]` [9(comparative), tri n-butyl n-tetradecyl phosphonium chloride], for which, in the assay with Desulfovibrio vulgaris (contact time 4 hours), the “Log10 Reduction Anaerobes*” value came to 5. Also, the “Log10 Reduction Facultative Anaerobes**” value in the assay with Enterobacter aerogenes (contact time 4 hours) is reported as 3.

Consider `CCCCCCCCCCCCCC[P+](CCCC)(CCCC)CCCC.[Cl-]` [10(comparative), tri n-butyl n-tetradecyl phosphonium chloride], for which the “Log10 Reduction Anaerobes*” value in the assay on Desulfovibrio vulgaris (contact time 4 hours) is 5. Also, the “Log10 Reduction Facultative Anaerobes**” value with Enterobacter aerogenes (contact time 4 hours) is listed as 4.

Regarding `[Na+].[O-][Cl+][O-]` [11(comparative), NaClO2], the “Log10 Reduction Anaerobes*” value in the assay with Desulfovibrio vulgaris (contact time 4 hours) amounted to 0. The “Log10 Reduction Facultative Anaerobes**” value in the assay with Enterobacter aerogenes (contact time 4 hours) is on record as 0.

Turning to `[Na+].[O-][Cl+][O-]` [12(comparative), NaClO2], the “Log10 Reduction Anaerobes*” value in the assay with Desulfovibrio vulgaris (contact time 4 hours) was found to be 1. Besides, the “Log10 Reduction Facultative Anaerobes**” value in the assay with Enterobacter aerogenes (contact time 4 hours) turned out to be 0.

For `CCCCCCCCCCCCCC[P+](CCCC)(CCCC)CCCC.[Cl-]` [17(comparative), tri n-butyl n-tetradecyl phosphonium chloride], in the assay with Desulfovibrio vulgaris (contact time 24 hours), the “Log10 Reduction Anaerobes*” value turned out to be 5. Moreover, the “Log10 Reduction Facultative Anaerobes**” value with Enterobacter aerogenes (contact time 24 hours) is recorded as 5.

For the molecule `CCCCCCCCCCCCCC[P+](CCCC)(CCCC)CCCC.[Cl-]` [18(comparative), tri n-butyl n-tetradecyl phosphonium chloride], in the assay with Desulfovibrio vulgaris (contact time 24 hours), the “Log10 Reduction Anaerobes*” value is 5. The “Log10 Reduction Facultative Anaerobes**” value with Enterobacter aerogenes (contact time 24 hours) was determined as 6.

As to `[Na+].[O-][Cl+][O-]` [19(comparative), NaClO2], the “Log10 Reduction Anaerobes*” value with Desulfovibrio vulgaris (contact time 24 hours) is 4. In addition, in the assay with Enterobacter aerogenes (contact time 24 hours), the “Log10 Reduction Facultative Anaerobes**” value came to 0.

Turning to `[Na+].[O-][Cl+][O-]` [NaClO2], the results for the “effectiveness against anaerobes (in words)” value with Desulfovibrio vulgaris (longer contact times) and in the assay with Desulfovibrio vulgaris (short contact times) were “limited effectiveness” and “ineffective”, respectively.
